What was measured:
[1] = biological target: other protein kinases (each individual kinase); assay: Standardized radiometric kinase assays, IC50 over 10 drug concentrations; assay type: biochemical; conditions: estimated
[2] = biological target: each individual kinase of the panel (Homo sapiens, UniProt O14965); assay: Standardized radiometric kinase assays, percentage of activity at 0.5 μM; conditions: for % Activity: Aurora-A(h);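 on all read-outs here: Read-out is ³³P-labelled substrate protein phosphorylated by each kinase, captured on filters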
[3] = biological target: each individual kinase of the panel (Homo sapiens, UniProt O43318); assay: as above; conditions: for % Activity: TAK1(h)
[4] = biological target: each individual kinase of the panel (Homo sapiens, UniProt P00533); assay: as above; conditions: for % Activity: EGFR(h)
[5] = biological target: each individual kinase of the panel (Homo sapiens, UniProt P00533, L858R); assay: as above; conditions: for % Activity: EGFR(L858R)(h)
[6] = biological target: each individual kinase of the panel (Homo sapiens, UniProt P04049); assay: as above; conditions: for % Activity: c-RAF(h)
[7] = biological target: each individual kinase of the panel (Homo sapiens, UniProt P06241); assay: as above; conditions: for % Activity: Fyn(h)
Sequence of each individual kinase of the panel (Homo sapiens, UniProt P06241) (P06241 2-537 limits assumed): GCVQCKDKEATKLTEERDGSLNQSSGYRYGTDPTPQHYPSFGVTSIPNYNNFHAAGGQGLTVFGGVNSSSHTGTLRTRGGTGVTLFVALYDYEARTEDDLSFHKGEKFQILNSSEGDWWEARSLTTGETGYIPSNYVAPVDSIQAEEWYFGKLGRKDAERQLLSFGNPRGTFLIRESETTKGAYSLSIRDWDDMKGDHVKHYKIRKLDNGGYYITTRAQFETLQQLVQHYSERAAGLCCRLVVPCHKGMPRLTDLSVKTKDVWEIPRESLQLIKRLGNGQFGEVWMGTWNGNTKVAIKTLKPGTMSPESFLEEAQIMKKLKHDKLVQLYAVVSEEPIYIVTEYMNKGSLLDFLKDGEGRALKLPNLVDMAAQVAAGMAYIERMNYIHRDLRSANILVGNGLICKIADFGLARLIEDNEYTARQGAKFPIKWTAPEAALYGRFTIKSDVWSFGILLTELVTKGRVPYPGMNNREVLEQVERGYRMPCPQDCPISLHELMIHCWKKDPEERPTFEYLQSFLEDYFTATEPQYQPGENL

[8] = biological target: each individual kinase of the panel (Homo sapiens, UniProt P07948); assay: as above; conditions: for % Activity: Lyn(h)
Sequence of each individual kinase of the panel (Homo sapiens, UniProt P07948) (P07948 2-512 limits assumed): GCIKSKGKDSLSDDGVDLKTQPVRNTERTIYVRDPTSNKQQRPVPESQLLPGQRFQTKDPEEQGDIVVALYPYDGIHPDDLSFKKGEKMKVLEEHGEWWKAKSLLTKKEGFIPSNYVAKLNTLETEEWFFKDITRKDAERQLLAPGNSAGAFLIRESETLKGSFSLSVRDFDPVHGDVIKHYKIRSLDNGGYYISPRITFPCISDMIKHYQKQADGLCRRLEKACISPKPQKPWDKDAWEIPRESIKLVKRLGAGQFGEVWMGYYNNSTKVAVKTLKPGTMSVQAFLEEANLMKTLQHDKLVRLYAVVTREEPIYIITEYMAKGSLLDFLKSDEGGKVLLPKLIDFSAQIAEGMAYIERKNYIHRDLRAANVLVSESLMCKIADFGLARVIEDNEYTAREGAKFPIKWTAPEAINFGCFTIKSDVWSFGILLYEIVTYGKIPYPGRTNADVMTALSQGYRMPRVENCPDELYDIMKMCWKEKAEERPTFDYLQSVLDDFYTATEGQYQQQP

[9] = biological target: each individual kinase of the panel (Homo sapiens, UniProt P08631); assay: as above; conditions: for % Activity: Hck(h)
Sequence of each individual kinase of the panel (Homo sapiens, UniProt P08631) (P08631 2-526 limits assumed): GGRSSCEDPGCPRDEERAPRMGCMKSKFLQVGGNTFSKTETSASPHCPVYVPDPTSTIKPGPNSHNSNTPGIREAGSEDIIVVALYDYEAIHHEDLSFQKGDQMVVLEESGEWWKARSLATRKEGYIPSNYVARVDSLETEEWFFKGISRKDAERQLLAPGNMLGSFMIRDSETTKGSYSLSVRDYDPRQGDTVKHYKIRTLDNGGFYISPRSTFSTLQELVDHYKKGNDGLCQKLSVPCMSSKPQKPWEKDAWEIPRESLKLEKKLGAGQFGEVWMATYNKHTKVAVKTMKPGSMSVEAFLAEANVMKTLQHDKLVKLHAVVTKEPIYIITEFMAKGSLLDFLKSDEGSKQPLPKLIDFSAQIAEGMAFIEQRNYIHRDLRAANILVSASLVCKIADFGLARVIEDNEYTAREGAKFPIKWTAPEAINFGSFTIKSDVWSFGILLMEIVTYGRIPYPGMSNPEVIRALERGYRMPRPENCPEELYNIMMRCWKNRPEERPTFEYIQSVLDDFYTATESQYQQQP

[10] = biological target: each individual kinase of the panel (Homo sapiens, UniProt P09619); assay: as above; conditions: for % Activity: PDGFRβ(h)
Sequence of each individual kinase of the panel (Homo sapiens, UniProt P09619) (P09619 33-1106 limits assumed): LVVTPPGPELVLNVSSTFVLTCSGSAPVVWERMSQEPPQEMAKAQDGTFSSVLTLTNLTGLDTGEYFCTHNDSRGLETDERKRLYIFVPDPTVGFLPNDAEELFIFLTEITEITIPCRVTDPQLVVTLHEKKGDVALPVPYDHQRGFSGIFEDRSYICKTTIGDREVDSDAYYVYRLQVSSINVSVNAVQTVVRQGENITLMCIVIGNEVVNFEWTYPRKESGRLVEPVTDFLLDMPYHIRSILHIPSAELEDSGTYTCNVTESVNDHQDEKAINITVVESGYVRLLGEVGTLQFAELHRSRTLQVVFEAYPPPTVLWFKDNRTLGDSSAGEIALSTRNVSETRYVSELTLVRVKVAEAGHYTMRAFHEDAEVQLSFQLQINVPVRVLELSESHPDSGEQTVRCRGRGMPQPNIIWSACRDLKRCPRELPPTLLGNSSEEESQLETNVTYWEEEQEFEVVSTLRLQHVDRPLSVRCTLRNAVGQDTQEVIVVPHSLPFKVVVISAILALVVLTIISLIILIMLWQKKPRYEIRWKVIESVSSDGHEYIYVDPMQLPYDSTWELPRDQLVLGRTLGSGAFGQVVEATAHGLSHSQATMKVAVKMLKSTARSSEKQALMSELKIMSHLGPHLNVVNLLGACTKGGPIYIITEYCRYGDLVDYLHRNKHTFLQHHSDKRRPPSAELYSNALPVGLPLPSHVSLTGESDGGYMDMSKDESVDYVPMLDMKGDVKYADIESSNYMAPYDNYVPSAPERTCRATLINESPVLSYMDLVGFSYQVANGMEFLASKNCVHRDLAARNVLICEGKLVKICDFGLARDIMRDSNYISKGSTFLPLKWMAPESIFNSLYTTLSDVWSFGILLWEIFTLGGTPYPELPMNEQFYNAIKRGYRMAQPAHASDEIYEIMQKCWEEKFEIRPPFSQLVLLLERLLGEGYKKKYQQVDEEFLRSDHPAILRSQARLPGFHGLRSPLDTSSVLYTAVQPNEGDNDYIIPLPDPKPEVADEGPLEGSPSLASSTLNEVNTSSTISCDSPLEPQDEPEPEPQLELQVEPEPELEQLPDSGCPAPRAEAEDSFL

[11] = biological target: each individual kinase of the panel (Homo sapiens, UniProt P11362); assay: as above; conditions: for % Activity: FGFR1(h)
Sequence of each individual kinase of the panel (Homo sapiens, UniProt P11362) (P11362 22-822 limits assumed): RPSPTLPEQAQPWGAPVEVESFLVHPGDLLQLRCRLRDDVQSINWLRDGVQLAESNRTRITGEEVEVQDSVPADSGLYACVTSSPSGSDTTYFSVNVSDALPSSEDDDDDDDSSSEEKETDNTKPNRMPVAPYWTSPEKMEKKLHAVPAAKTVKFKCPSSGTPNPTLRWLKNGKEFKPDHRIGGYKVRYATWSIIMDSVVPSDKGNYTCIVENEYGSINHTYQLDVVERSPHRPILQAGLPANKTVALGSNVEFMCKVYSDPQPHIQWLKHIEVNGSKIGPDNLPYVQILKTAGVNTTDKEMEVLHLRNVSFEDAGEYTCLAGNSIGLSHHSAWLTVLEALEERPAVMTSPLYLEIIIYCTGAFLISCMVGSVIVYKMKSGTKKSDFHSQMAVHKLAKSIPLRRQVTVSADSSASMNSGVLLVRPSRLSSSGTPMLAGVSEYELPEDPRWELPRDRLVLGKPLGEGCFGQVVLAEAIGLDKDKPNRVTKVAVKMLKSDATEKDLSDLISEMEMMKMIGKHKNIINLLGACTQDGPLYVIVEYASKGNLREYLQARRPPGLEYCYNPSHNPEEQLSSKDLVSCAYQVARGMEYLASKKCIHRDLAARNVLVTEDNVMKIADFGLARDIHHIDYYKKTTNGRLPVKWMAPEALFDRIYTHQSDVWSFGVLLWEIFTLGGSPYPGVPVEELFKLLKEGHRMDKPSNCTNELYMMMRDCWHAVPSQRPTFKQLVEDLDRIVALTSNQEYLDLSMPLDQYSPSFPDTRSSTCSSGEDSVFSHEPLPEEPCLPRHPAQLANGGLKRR

[12] = biological target: each individual kinase of the panel (Homo sapiens, UniProt P17612); assay: as above; conditions: for % Activity: PKA(h)
[13] = biological target: each individual kinase of the panel (Homo sapiens, UniProt P35916); assay: as above; conditions: for % Activity: Flt4(h)
[14] = biological target: each individual kinase of the panel (Homo sapiens, UniProt P35968); assay: as above; conditions: for % Activity: KDR(h)
[15] = biological target: each individual kinase of the panel (Homo sapiens, UniProt P42345); assay: as above; conditions: for % Activity: mTOR(h)
[16] = biological target: each individual kinase of the panel (Homo sapiens, UniProt P51812); assay: as above; conditions: for % Activity: Rsk2(h)
[17] = biological target: each individual kinase of the panel (Homo sapiens, UniProt P53350); assay: as above; conditions: Plk1(h)
[18] = biological target: each individual kinase of the panel (Homo sapiens, UniProt P54760); assay: as above; conditions: for % Activity: EphB4(h)
[19] = biological target: each individual kinase of the panel (Homo sapiens, UniProt Q13177); assay: as above; conditions: for % Activity: PAK2(h)
[20] = biological target: each individual kinase of the panel (Homo sapiens, UniProt Q15303); assay: as above; conditions: for % Activity: ErbB4(h)
Sequence of each individual kinase of the panel (Homo sapiens, UniProt Q15303) (Q15303 26-1308 limits assumed): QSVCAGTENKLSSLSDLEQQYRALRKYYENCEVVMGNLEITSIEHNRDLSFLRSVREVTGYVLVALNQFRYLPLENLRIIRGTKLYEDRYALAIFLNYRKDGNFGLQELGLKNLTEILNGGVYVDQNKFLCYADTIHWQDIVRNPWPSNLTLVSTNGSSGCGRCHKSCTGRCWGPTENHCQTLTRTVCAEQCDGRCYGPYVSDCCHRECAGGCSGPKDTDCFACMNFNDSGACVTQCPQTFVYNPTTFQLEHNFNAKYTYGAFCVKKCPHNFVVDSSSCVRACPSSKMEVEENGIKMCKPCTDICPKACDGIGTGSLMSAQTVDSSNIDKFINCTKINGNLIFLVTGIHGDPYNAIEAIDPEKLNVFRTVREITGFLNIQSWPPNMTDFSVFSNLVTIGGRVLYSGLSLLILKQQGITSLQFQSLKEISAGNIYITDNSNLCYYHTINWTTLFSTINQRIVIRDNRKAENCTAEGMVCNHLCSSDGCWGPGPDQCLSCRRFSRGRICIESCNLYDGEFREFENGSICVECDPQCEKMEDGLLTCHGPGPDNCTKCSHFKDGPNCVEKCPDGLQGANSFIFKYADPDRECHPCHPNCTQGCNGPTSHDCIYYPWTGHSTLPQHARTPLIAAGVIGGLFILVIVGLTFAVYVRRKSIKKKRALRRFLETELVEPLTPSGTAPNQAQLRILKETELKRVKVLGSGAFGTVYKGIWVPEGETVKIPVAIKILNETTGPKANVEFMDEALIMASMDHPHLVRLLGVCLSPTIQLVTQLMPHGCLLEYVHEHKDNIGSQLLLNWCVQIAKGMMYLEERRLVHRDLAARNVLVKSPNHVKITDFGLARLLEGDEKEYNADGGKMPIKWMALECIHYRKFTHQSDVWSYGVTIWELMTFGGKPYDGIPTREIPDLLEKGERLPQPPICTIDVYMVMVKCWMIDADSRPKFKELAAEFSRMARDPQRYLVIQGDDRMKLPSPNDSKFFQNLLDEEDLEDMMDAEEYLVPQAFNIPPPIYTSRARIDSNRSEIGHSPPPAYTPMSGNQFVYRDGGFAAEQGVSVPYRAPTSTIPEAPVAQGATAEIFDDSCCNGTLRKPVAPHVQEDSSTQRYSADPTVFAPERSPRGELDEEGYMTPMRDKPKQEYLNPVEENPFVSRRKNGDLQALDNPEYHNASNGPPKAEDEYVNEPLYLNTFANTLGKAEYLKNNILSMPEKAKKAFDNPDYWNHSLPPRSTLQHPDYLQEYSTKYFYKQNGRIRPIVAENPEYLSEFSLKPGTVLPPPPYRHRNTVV

[21] = biological target: each individual kinase of the panel (Homo sapiens, UniProt Q8IW41); assay: as above; conditions: for % Activity: PRAK(h)
[22] = biological target: each individual kinase of the panel (Homo sapiens, UniProt Q9H422); assay: as above; conditions: for % Activity: HIPK3(h)
[23] = biological target: each individual kinase of the panel (Homo sapiens, UniProt P51955); assay: as above
[24] = biological target: each individual kinase of the panel (Homo sapiens, UniProt P51813); assay: as above
[25] = biological target: each individual kinase of the panel (Homo sapiens, UniProt P52333); assay: as above
[26] = biological target: each individual kinase of the panel (Homo sapiens, UniProt Q05513); assay: as above
[27] = biological target: each individual kinase of the panel (Homo sapiens, UniProt Q13882); assay: as above
[28] = biological target: each individual kinase of the panel (Homo sapiens, UniProt Q9NQU5); assay: as above
[29] = biological target: each individual kinase of the panel (Mus musculus, UniProt P16277); assay: as above

`Clc1ccccc1Nc1nc2c(-c3nnc[nH]3)cccc2c2cnccc12` [A] showed an IC50 ([1]; Flt3(h)) of 104 nM, an IC50 ([1]; Pim-1(h)) of 1 nM and an IC50 ([1]; Pim-2(h)) of 6 nM. The IC50 ([1]; Pim-3(h)) was 86 nM, the IC50 ([1]; Rsk1(h)) was 41 nM and the IC50 ([1]; Rsk2(h)) was 72 nM. For the same compound, the IC50 ([1]; Rsk3(h)) was 73 nM, the IC50 ([1]; Rsk4(h)) was 37 nM and the “% Activity” value [2] was 43%. The “% Activity” value [3] was 28%, the “% Activity” value [4] was 111% and the “% Activity” value [5] was 56%. The “% Activity” value [6] was 66%, the “% Activity” value [7] was 49% and the “% Activity” value [8] was 75%. The “% Activity” value [9] was 61%, the “% Activity” value [10] was 94% and the “% Activity” value [11] was 100%. The “% Activity” value [12] was 97%, the “% Activity” value [13] was 17% and the “% Activity” value [14] was 43%. For the same compound, the “% Activity” value [15] was 99%, the “% Activity” value [16] was 13% and the “% Activity” value [17] was 96%. The “% Activity” value [18] was 87%, the “% Activity” value [19] was 106% and the “% Activity” value [20] was 77%. For the same compound, the “% Activity” value [21] was 97% and the “% Activity” value [22] was 2%.

With `NC(=O)c1cccc2c1nc(Nc1cccc(Cl)c1)c1ccncc12` [B] the “% Activity” value [2] was 77%, the “% Activity” value [3] was 79% and the “% Activity” value [4] was 101%. For the same compound, the “% Activity” value [5] was 56%, the “% Activity” value [6] was 69% and the “% Activity” value [7] was 49%. For the same compound, the “% Activity” value [8] was 75%, the “% Activity” value [9] was 62% and the “% Activity” value [10] was 94%. The “% Activity” value [11] was 93%, the “% Activity” value [12] was 100% and the “% Activity” value [13] was 41%. The “% Activity” value [14] was 75%, the “% Activity” value [15] was 101% and the “% Activity” value [16] was 40%. For the same compound, the “% Activity” value ([23]; NEK2(h)) was 95%, the “% Activity” value [17] was 76% and the “% Activity” value [18] was 105%. The “% Activity” value [19] was 108%, the “% Activity” value [20] was 77% and the “% Activity” value [21] was 84%. The “% Activity” value [22] was −1%.

In the case of `C#Cc1cccc(Nc2nc3cc(C(=O)O)ccc3c3cncnc23)c1` [drawing 1135], the “AURKA percentage of activity” value [2] is reported as 6%, the “TAK1 percentage of activity” value [3] is reported as −1% and the “EGFR percentage of activity” value [4] is reported as −23%. The “RAF1 percentage of activity” value [6] was 31%, the “FYN percentage of activity” value [7] was −14% and the “HCK percentage of activity” value [9] was −11%. For the same compound, the “PDGFRB percentage of activity” value [10] was −10%, the “FGFR1 percentage of activity” value [11] was −3% and the “FLT4 percentage of activity” value [13] was 101%. The “VEGFR2 percentage of activity” value [14] was 33%, the “mTOR percentage of activity” value [15] was 15% and the “RPS6KA3 percentage of activity” value [16] was 34%. The “BMX percentage of activity” value [24] was −18%, the “NEK2 percentage of activity” value [23] was 23% and the “JAK3 percentage of activity” value [25] was 8%. For the same compound, the “EPHB4 percentage of activity” value [18] was −44%, the “PRKCZ percentage of activity” value [26] was −9% and the “PAK2 percentage of activity” value [19] was −12%. The “BRK percentage of activity” value [27] was −10%, the “ERBB4 percentage of activity” value [20] was −26% and the “MAPKAPK5 percentage of activity” value [21] was 7%. For the same compound, the “HIPK3 percentage of activity” value [22] was 90%, the “PAK6 percentage of activity” value [28] was −14% and the “Blk(m) percentage of activity” value [29] was 0%.

`C#Cc1cccc(Nc2nc3cc(C(=O)O)ccc3c3cnccc23)c1` [drawing 1137] was tested, and the “AURKA percentage of activity” value [2] was 3%, the “TAK1 percentage of activity” value [3] was 6% and the “EGFR percentage of activity” value [4] was 24%. The “EGFR(L858R) percentage of activity” value [5] was 24%, the “RAF1 percentage of activity” value [6] was 62% and the “FYN percentage of activity” value [7] was 18%. For the same compound, the “LYN percentage of activity” value [8] was 20%, the “HCK percentage of activity” value [9] was 26% and the “PDGFRB percentage of activity” value [10] was −2%. The “FGFR1 percentage of activity” value [11] was 23%, the “PKA percentage of activity” value [12] was −9% and the “FLT4 percentage of activity” value [13] was 101%. The “VEGFR2 percentage of activity” value [14] was 55%, the “RPS6KA3 percentage of activity” value [16] was 53% and the “BMX percentage of activity” value [24] was 8%. The “NEK2 percentage of activity” value [23] was 73%, the “EPHB4 percentage of activity” value [18] was −8% and the “PAK2 percentage of activity” value [19] was 1%. For the same compound, the “BRK percentage of activity” value [27] was 18%, the “ERBB4 percentage of activity” value [20] was 17% and the “MAPKAPK5 percentage of activity” value [21] was 22%. For the same compound, the “HIPK3 percentage of activity” value [22] was 91% and the “Blk(m) percentage of activity” value [29] was 33%.

With `NC(=O)c1ccc2c(c1)nc(Nc1cccc(Cl)c1)c1ccncc12` [drawing 1138] the “AURKA percentage of activity” value [2] was 11%, the “TAK1 percentage of activity” value [3] was 12% and the “EGFR percentage of activity” value [4] was 15%. For the same compound, the “EGFR(L858R) percentage of activity” value [5] was 63%, the “RAF1 percentage of activity” value [6] was 62% and the “FYN percentage of activity” value [7] was 32%. The “LYN percentage of activity” value [8] was 16%, the “HCK percentage of activity” value [9] was 28% and the “PDGFRB percentage of activity” value [10] was 3%. For the same compound, the “FGFR1 percentage of activity” value [11] was 17%, the “PKA percentage of activity” value [12] was −1% and the “FLT4 percentage of activity” value [13] was 40%. For the same compound, the “VEGFR2 percentage of activity” value [14] was 15%, the “NEK2 percentage of activity” value [23] was 13% and the “EPHB4 percentage of activity” value [18] was −16%. The “PAK2 percentage of activity” value [19] was 4%, the “ERBB4 percentage of activity” value [20] was 33% and the “MAPKAPK5 percentage of activity” value [21] was 22%. The “HIPK3 percentage of activity” value [22] was 57%.

From patent US8168651B2, “Protein kinase modulators” (Cylene Pharmaceuticals, Inc., priority 2008, dated 2012)
